Laboratory results reported in patent EP1263429B1, “ANTIVIRAL THERAPY” (Universiteit Utrecht, priority 2000, dated 2001).

System: HIV-1
Assay: IC50 determination of an anti-viral (Table 3)
Assay type: cell-based
Settings: Human immunodeficiency virus 1

With `CCCCC#CCSc1ccccc1OCCCC` [BPHS] the IC50 was 40 µM.
